Assay results from publication PMC12655351, “Synthesis and Anticancer Activity Evaluation of New 5-((5-Nitrofuran-2-yl)allylidene)-2-thioxo-4-thiazolidinones” (Pharmaceuticals, 2025).

Columns and labels:
MCF-7 = assay: [3H]-thymidine incorporation assay; type: cell-based; details: Homo sapiens, MCF7; MCF-7, 24 h of treatment
Description: (§1) Another method of assessing the cytotoxic effects of tested compounds, [^3H]-thymidine incorporation assay, was applied. This method provided the capability to analyze the antiproliferative activity of novel structures on MCF-7 and MDA-MB-231 through their ability to incorporate thymidine into the cells. The acquired results further confirmed the potent activity of the 14b compound as the most prominent structure among the novel compounds (Table 2). The test was carried out in triplicate at concentrations of 5, 15, and 30 μM for the MDA-MB-231 cell line and 1, 5, and 10 μM for the MCF-7 cell line.
(§2) Following the selection of cell lines for further study, the effects of all compounds on cell proliferation were evaluated on MCF-7 and MDA-MB-231 cell lines. Cells were seeded in 24-well plates and cultured as described above. Cells were treated with the compounds at concentrations 1, 5, and 10 μM, and 5, 15, and 30 μM for MCF-7 and MDA-MB-231 cell lines, respectively, for 24 h. Subsequently, 0.5 μCi [^3H]-thymidine was added for 4 h at 37 °C. Then, plates with cells were placed on the ice, the liquid was aspirated, and cells were washed twice with 1mL of 0.05 M Tris-HCl buffer comprising 0.11 M NaCl and precipitated by adding 1 mL per well of 5% trichloroacetic. After precipitation, the cells were dissolved with 1 mL of 0.1 M NaOH with 1% SDS (Sigma-Aldrich, St. Louis, MO, USA) at room temperature (RT). The cell lysates were transferred into scintillation vials containing 2 mL of scintillation fluid (Ultima Gold™ XR, PerkinElmer, MA, USA), and cell-associated radioactivity was measured using a Scintillation Counter 1900 TR, TRI-CARB (Packard, Perkin Elmer, Inc., San Jose, CA, USA). The [^3H]-thymidine uptake was expressed as a percentage of the control value.

MDA-MB-231 = assay: [3H]-thymidine incorporation assay; type: cell-based; details: Homo sapiens; MDA-MB-231, 24 h of treatment
Description: as §1, §2

MOLT-4 = details: MOLT-4, 48 h
MDA-MB-231/ATCC = details: 48 h
Prostate Cancer = assay: cells; details: Homo sapiens, read-out: MG_MID GI50
SR = assay: cells; details: Homo sapiens, 48 h
MCF7 = assay: NCI-60 SRB screen; details: MCF7, 48 h
HS 578T = assay: cells; details: Homo sapiens, 48 h
Renal Cancer = Renal Cancer subpanel
HT29 = details: HT29, 48 h
CNS cancer = assay: cells; details: Homo sapiens
OVCAR-3 = assay: cells; details: Homo sapiens, OVCAR-3, 48 h
A498 = details: A498, 48 h
RPMI-8226 [1] = details: RPMI-8226, 48 h
PC-3 = assay: cells; details: Homo sapiens, PC-3, 48 h
[2] = test system: panel of 60 cancer cell lines
UACC-62 = assay: NCI-60 SRB screen; details: UACC-62, 48 h
NCI/ADR-RES = details: 48 h
HOP-62 = assay: NCI-60 SRB screen; details: HOP-62, 48 h
OVCAR-4 = details: OVCAR-4, 48 h
BT-549 = details: BT-549, 48 h
RPMI-8226 [3] = assay: cells; details: Homo sapiens, RPMI-8226, 48 h
HOP-92 = assay: NCI-60 SRB screen; details: HOP-92, 48 h
DU-145 = details: DU-145, 48 h
NCI-H460 = assay: NCI-60 SRB screen; details: NCI-H460, 48 h
786-0 = assay: cells; details: Homo sapiens, 786-0, 48 h
SK-OV-3 = details: SK-OV-3, 48 h
K-562 = details: K-562, 48 h
UO-31 = details: UO-31, 48 h
HCT-15 = assay: NCI-60 SRB screen; details: HCT-15, 48 h

SMILES: CC(C(=O)O)N1C(=O)/C(=C/C=C/c2ccc([N+](=O)[O-])o2)SC1=S (stereo not drawn) [2b, 2-((Z)-5-((E)-3-(5-Nitrofuran-2-yl)allylidene)-4-oxo-2-thioxothiazolidin-3-yl)propanoic acid]
- IC50 (MCF-7): 6.61 µM
- IC50 (MDA-MB-231): 5.56 µM

SMILES: CCCC(C(=O)O)N1C(=O)/C(=C/C=C/c2ccc([N+](=O)[O-])o2)SC1=S (stereo not drawn) [4b, 2-((Z)-5-((E)-3-(5-Nitrofuran-2-yl)allylidene)-4-oxo-2-thioxothiazolidin-3-yl)pentanoic acid]
- TGI (MOLT-4): 14.4 µM
- TGI (MDA-MB-231/ATCC): 4.29 µM
- GI50 (Prostate Cancer): 2.65 µM
- GI50 (SR): 1.86 µM
- CC50 (SR; read-out: LC50): > 100 µM
- GI50 (MCF7; Homo sapiens): 1.6 µM
- TGI (MCF7): 3.70 µM
- GI50 (HS 578T; HS 578T): 1.87 µM
- CC50 (HS 578T; read-out: LC50): > 100 µM
- MG_MID TGI (Renal Cancer): 4.25 µM
- TGI (HT29): 3.81 µM
- GI50 (CNS cancer; read-out: MG_MID GI50): 1.93 µM
- CC50 (CNS cancer; read-out: MG_MID LC50): 11.6 µM
- GI50 (OVCAR-3): 2.18 µM
- TGI (A498): 7.21 µM
- TGI (RPMI-8226 [1]): 5.11 µM
- GI50 (PC-3): 2.87 µM
- Positive cytostatic effect (ratio of cell lines with GP from 0 to 50 to total number) ([2]; 10 μM, 48 h): 4/55
- Mean growth ([2]; 10 μM, 48 h, one dose): 36.52%
- MG_MID TGI ([2]; full panel (last line of Table S2)): 5.85 µM
- GI50 (UACC-62; Homo sapiens): 1.5 µM
- CC50 (UACC-62; Homo sapiens, read-out: LC50, UACC-62, 48 h): 5.9 µM
- TGI (UACC-62): 2.98 µM
- TGI (NCI/ADR-RES): 4.96 µM
- TGI (HOP-62): 5.43 µM
- GI50 (HOP-62; Homo sapiens): 2.23 µM
- TGI (OVCAR-4): 19.1 µM
- TGI (BT-549): 3.37 µM
- GI50 (RPMI-8226 [3]): 1.79 µM
- CC50 (RPMI-8226 [3]; read-out: LC50): > 100 µM
- TGI (HOP-92): 7.69 µM
- GI50 (HOP-92; Homo sapiens): 2.63 µM
- CC50 (HOP-92; Homo sapiens, read-out: LC50, HOP-92, 48 h): 31.9 µM
- IC50 (MCF-7): 6.13 µM
- IC50 (MDA-MB-231): 3.66 µM
- TGI (DU-145): 6.42 µM
- GI50 (NCI-H460; Homo sapiens): 1.7 µM
- CC50 (NCI-H460; Homo sapiens, read-out: LC50): 6.23 µM
- TGI (NCI-H460): 3.25 µM
- GI50 (786-0): 3.71 µM
- TGI (SK-OV-3): 18.7 µM
- TGI (K-562): 14.5 µM
- TGI (UO-31): 3.33 µM
- TGI (HCT-15): 3.39 µM
- GI50 (HCT-15; Homo sapiens): 1.65 µM
- CC50 (HCT-15; Homo sapiens, read-out: LC50, HCT-15, 48 h): 6.97 µM
